The subject of test [1] is ORN with 27 bases in mixture with an ODN with 27 bases. Briefly: Selective functionalisation, capture, cleaving and elution of an ORN from an ORN/ODN mixture (HPLC 260 nm). Particulars: injection 2, after two functionalisation/precipitation steps, 65° C. 1 h. The procedure: We have a 27-mer ODN (Eurogentec ref. 21438-DNA batch #2177673, Sequence: 5′-AAC-CGC-AGT-GAC-ACC-CTC-ATC-ATT-ACA-3′) in 650 μM solution in water, and a 27-mer ORN (Eurogentec ref. 21437-RNA batch #2177672, Sequence: 5′-AAC-CGC-AGU-GAC-ACC-CUC-AUC-AUU-ACA-3′) in 952 μM solution in water. 15.4 μL of ODN and 17.5 μL of ORN are mixed and topped up with 67.1 μL of ultrapure water.
80 μL of the mixture (8 nmoles) are evaporated until dry and taken up in: 10 μL of water, 5 μL of isatoic anhydride Biot PEG4(SS)IA Me (24); […]), in 480 mM DMF solution, and 5 μL of Triethyl ammonium acetate buffer in 1 M solution in water. The medium is placed in the oven at 65° C. for one hour.
The medium is then subjected to a triple precipitation with lithium perchlorate LiClO4 and with acetone, in order to free it from the residual BiotPEG4 (SS) IA Me: 18 μL of LiClO4 in 3M solution in water and 262 μL of water are added to the medium. After vortex stirring, 900 μL of acetone are added, then the medium is agitated once again and centrifuged (5 minutes at 13,000 rpm at ambient temperature). The supernatant is then removed carefully and the same method is repeated twice more with 18 μL of LiClO4 and 282 μL of water. Finally, the medium is washed with 900 μL of acetone before stirring and centrifuging. The greater part of the supernatant is removed carefully before drying in the rotary evaporator. […]

The next test concerns MAQC RNA. Briefly: DoL of MAQC total RNA after zinc acetate cleaving and alkaline phosphatase treatment. The class given is biochemical, human. Particulars: compound 15 mM. The procedure:
The panel of RNA strands is MAQC RNA (Stratagene Reference: #74000). This total RNA (ribosomal and messenger) is directly extracted from ten lines of human cells of different origin: brain, breast, B Lymphocyte, uterine cervix, liver, liposarcoma, macrophage, skin, testicle, Lymphocyte T.
The functionalisation protocol is the same as that described in example 9, i.e.: • 12 μg of MAQC0 RNA is incubated, or not, with a Zinc acetate solution. • The mixture is precipitated with isopropanol. • 7 units of alkaline phosphatase (P7923-2KU Sigma-Aldrich) are added to the mixture, […] There is then added to the mixture the molecule Cy3-IA Me 13 at 15 mM in a NaHCO3 buffer (100 mM/DMSO 75/25 pH 8-8.5), with a total volume of 80 μl. The mixture is incubated for 1 h at 65° C. • The mixture is precipitated once again with isopropanol, then twice with acetone, before the DoL is measured as described in example 9.

Each structure is given as a SMILES string.

The text below walks through data of US20130253179A1, “Functionalization Processes and Reactants Used in Such Processes Using an Isatoic Anhydride or a Derivative Thereof, Biological Molecules Thus Treated and Kits” (priority 2010, published 2013).

With `Cn1c(=O)oc(=O)c2cc(NC(=O)CCSSCCNC(=O)CCOCCOCCOCCOCCNC(=O)CCCCC3SCC4NC(=O)NC43)ccc21` (centres unmarked) [5Biot PEG4 SS IA Me 24], in test [1], the “initial ORN functionalised” value is listed as 95%.
On to `CCN1/C(=C\C=C\C2=[N+](CCCCCC(=O)Nc3ccc4c(c3)c(=O)oc(=O)n4C)c3ccc(S(=O)(=O)[O-])cc3C2(C)C)C(C)(C)c2cc(S(=O)(=O)[O-])ccc21.[K+]` [Cy3 IA Me 13, 1-methyl 5-Cy3-isatoic anhydride], for which the DoL in the test with MAQC RNA (10 mM Zn(OAc)2 0 mins, AP hydrolysis 0) is listed as 1.7%; in the test with MAQC RNA (10 mM Zn(OAc)2 0 mins, AP hydrolysis 4 h), 1.5%; with MAQC RNA (10 mM Zn(OAc)2 15 mins, AP hydrolysis 0) it was 1.7%; with MAQC RNA (10 mM Zn(OAc)2 15 mins, AP hydrolysis 4 h) it was 2.5%.
